Source: article PMC8619920, “New Polyesterified Ursane Derivatives from Leaves of Maesa membranacea and Their Cytotoxic Activity” (Molecules, 2021)

How the values were obtained:
[1] = tested on: DU145 human prostate carcinoma cells; experiment: Cytotoxicity, LDH assay, DU145 cells; type: cell-based; details: 24 h treatment; for IC50: Homo sapiens, DU-145, 24 h
[2] = tested on: A375 human malignant melanoma cells; experiment: Cytotoxicity, LDH assay, A375 cells; type: cell-based; details: Homo sapiens, A-375; 24 h treatment, 5–100 μg/mL
Method: (§1) Cytotoxic activity was tested on human cancer and normal cells, grouped in three panels, namely: prostate, skin and gastrointestinal. The prostate panel consisted of prostate cancer cell lines Du145 (ATCC HTB-81) and PC3 (ATCC CRL-1435), and prostate epithelial cells PNT-2 (ECACC 95012613). Melanoma cell lines A375 (ATCC CRL-1619) and HTB140 (ATCC Hs 294T) together with skin keratinocytes HaCaT (obtained as a kind gift of prof. Marta Michalik, Department of Cell Biology, Jagiellonian University, Kraków, Poland) were included into the skin panel. The gastrointestinal panel of cells comprised colon cancer cell lines Caco-2 (ATCC HTB-37) and HT29 (ATCC HTB-38). Du145 cells were grown in Modified Eagle’s Medium with low (1.0 g/L) glucose concentration, HT29, PC3 and PNT-2 cells in Dulbecco’s Modified Eagle’s Media: F12 HAM Nutrient Mixture, Caco-2 in Modified Eagle’s Medium with NEAA (no-essential amino acids) while melanoma cells and keratinocytes were maintained in Modified Eagle’s Medium with high (4.5 g/L) glucose concentration. The culture media (all supplied by Sigma-Aldrich Co.; St. Louis, MO, USA) contained antibiotics and 10% fetal bovine serum (FBS). All cultures were maintained at 37 °C, in a humidified, 5% CO2 containing, atmosphere.
(§2) The examined triterpenes were diluted in the culture media from freshly made stock solutions in MeOH (10 mg/mL) to the working concentrations (from 0 to 100 μg/mL).
(§3) Cell viability was determined as it was described previously. Cells suspended in the nutrient medium were transferred into 96-well microtiter plates (density 1.5 × 10^4 per well), and preincubated for 24 h (37 °C, 5% CO2). Then, the culture medium was replaced with the medium containing different concentrations of 1 or 2 (1–100 μg/mL). After 24 h of incubation, viability of the cells was determined using colorimetric lactate dehydrogenase (LDH) assay, in comparison to the controls to which corresponding aliquots of MeOH diluted with culture media were added. Cells grown in the medium without the tested compounds were used as control I (negative) and the positive control (control II) was obtained by incubation of the cells in the medium containing 1% Triton X-100. LDH released from the damaged cells into the cell culture medium was quantified by measuring the absorbance at 490 nm using Synergy II Biotek (BioTek Instruments, Winooski, VT, USA) microplate reader. Cytotoxicities of the examined compounds were calculated as follows: [(absorbance of the tested sample − absorbance of control I)/(absorbance of control II − absorbance of control I)] × 100. Results were means of three independent measurements (± SD). Doxorubicin (Ebewe Pharma GmbH., Unterach, Austria) was used as a reference cytostatic drug. The IC50 values were determined by plotting the percentage viability of the cells versus concentration and the adequate calculations made using AAT Bioquest website program (https://www.aatbio.com/tools/ic50-calculator, accessed on 29 October 2021).

[3] = Cytotoxicity, LDH assay, A375 cells; type: cell-based, human; details: human, A375 malignant melanoma cells, 24 h, mean ± SD of three, read-out: Cell viability A375
Method: as §1, §2, §3

SMILES | IC50 DU145 ([1]; 5–100 μg/mL) | IC50 ([1]; 5–100 μg/mL) | IC50 ([1]; value in brackets, footnote d) | IC50 [2] | viability at 24 h, 5 μg/mL [3] | viability at 24 h, 10 μg/mL [3] | viability at 24 h, 20 μg/mL [3] | viability at 24 h, 30 μg/mL [3] | viability at 24 h, 40 μg/mL [3] | viability at 24 h, 50 μg/mL [3] | viability at 24 h, 100 μg/mL [3]
CCC(C)C(=O)OC1C=C2C3C(C)C(C)(O)CC(OC(C)=O)C3(C)CCC2(C)C2(C)CC(OC(C)=O)C3C(C)(C)C(O)C(OC(C)=O)CC3(C)C12 (stereo not drawn) [Compound 1, 2α,6β,22α-triacetoxy-11α-(2-methylbutyryloxy)-urs-12-ene-3α,20β-diol] | 35.83 µg/mL | 35.8 µg/mL | 50 µM | > 100 µg/mL | 97.23 ± 0.57% | 96.44 ± 0.92% | 92.8 ± 1.11% | 87.2 ± 2.17% | 79.8 ± 2.02% | 70.2 ± 1.39% | 62.6 ± 2.03%
CC(=O)OC1CC2(C)C(C(OC(C)=O)CC3(C)C2C(O)C=C2C4C(C)C(C)(O)CC(OC(C)=O)C4(C)CCC23C)C(C)(C)C1O (stereo not drawn) [Compound 2, 2α,6β,22α-triacetoxy-urs-12-ene-3α,11α,20β-triol] | – | > 100 µg/mL | – | > 100 µg/mL | 97.28 ± 0.33% | 95.28 ± 0.9% | 91.1 ± 1.39% | 87.3 ± 1.5% | 82.6 ± 1.36% | 76.2 ± 1.78% | 67.6 ± 1.48%
